Columns and labels:
RXRγ = molecular target: T1, RXRγ (Mus musculus, UniProt P28705); assay: RXR binding, RXRγ; settings: -v- tritiated LGD1069 and tritiated 9-cis retinoic acid
T1 sequence (P28705 1-463): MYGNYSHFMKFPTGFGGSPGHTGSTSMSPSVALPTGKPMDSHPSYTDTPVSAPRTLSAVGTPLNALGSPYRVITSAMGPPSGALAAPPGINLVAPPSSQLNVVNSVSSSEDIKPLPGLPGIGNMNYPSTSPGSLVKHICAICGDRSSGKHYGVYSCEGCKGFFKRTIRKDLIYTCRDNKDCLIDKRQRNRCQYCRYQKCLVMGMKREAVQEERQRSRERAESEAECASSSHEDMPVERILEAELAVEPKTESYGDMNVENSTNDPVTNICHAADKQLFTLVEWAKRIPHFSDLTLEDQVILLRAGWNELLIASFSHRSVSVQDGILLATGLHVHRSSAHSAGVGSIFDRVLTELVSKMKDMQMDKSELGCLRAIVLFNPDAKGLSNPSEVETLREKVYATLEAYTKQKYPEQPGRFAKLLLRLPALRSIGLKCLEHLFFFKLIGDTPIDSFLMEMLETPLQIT
Procedure: (§1) Non-specific binding was defined as that binding remaining in the presence of 500 nM of the appropriate unlabelled compound. At the end of the incubation period, bound from free ligand were separated. The amount of bound tritiated retinoids was determined by liquid scintillation counting of an aliquot (700 μL) of the supernatant fluid or the hydroxylapatite pellet.
(§2) After correcting for non-specific binding, IC50 values were determined. […] The IC50 value was determined graphically from a log-logit plot of the data. The Kd values were determined by application of the Cheng-Prussof equation to the IC50 values, the labeled ligand concentration and the Kd of the labeled ligand.

RXRα = molecular target: T2, RXRα (Homo sapiens, UniProt P19793); assay: RXR binding, RXRα; settings: -v- tritiated LGD1069 and tritiated 9-cis retinoic acid
T2 sequence (P19793 1-462): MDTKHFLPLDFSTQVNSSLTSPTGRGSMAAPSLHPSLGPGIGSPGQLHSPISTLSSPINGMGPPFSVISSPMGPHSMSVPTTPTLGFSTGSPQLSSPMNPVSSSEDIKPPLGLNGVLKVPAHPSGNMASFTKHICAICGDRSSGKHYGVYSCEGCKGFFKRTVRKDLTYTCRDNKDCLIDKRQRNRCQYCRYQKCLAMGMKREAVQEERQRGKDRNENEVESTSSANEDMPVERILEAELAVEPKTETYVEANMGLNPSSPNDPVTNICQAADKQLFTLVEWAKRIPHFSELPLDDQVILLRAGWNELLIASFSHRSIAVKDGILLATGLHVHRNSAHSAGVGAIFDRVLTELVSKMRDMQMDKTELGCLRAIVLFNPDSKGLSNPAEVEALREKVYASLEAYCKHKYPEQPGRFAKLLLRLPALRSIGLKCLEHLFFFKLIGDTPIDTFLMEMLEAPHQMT
Procedure: as §1, §2

RXRβ = molecular target: T3, RXRβ (Mus musculus, UniProt P28704); assay: RXR binding, RXRβ; settings: -v- tritiated LGD1069 and tritiated 9-cis retinoic acid
T3 sequence (P28704 1-520): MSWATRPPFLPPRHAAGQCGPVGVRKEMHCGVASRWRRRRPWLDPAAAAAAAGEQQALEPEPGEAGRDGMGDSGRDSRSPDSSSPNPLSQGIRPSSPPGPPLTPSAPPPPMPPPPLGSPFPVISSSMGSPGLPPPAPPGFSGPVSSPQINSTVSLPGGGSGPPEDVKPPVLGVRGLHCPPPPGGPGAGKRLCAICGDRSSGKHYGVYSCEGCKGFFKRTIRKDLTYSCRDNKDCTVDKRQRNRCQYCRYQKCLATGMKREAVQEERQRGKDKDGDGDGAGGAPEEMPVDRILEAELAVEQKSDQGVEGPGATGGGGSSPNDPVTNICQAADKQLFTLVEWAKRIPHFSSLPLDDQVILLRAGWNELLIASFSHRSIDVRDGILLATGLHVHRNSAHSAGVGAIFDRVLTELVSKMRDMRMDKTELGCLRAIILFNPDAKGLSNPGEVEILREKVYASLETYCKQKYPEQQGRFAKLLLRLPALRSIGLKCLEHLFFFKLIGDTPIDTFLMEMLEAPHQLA
Procedure: as §1, §2

| Structure (SMILES) | melting point | Kd (RXRγ) [nM] | Kd (RXRα) [nM] | Kd (RXRβ) [nM] |
| --- | --- | --- | --- | --- |
| CCCCCCCOc1cc2c(cc1C=Cc1ccc(C(=O)O)cc1)C(C)(C)CCC2(C)C [Compound 116, 4-[(3-heptyloxy-5,6,7,8-tetrahydro-5,5,8,8-tetramethyl-2-naphthyl)ethenyl]benzoic acid] | 153 to 155 °C | – | – | – |
| CCCCCCOc1cc2c(cc1/C(C)=C/C=C/C(C)=C/C(=O)O)C(C)(C)CCC2(C)C [Compound 125, (2E, 4E, 6E)-7-[3-hexyloxy-5,6,7,8-tetrahydro-5,5,8,8-tetramethyl-2-naphthalen-2-yl]-3-methylocta-2,4,6-trienoic acid] | – | 186 | 56 | 145 |
| CCCCCCCOc1c(/C(C)=C/C=C/C(C)=C/C(=O)O)cc(C(C)C)cc1C(C)C [Compound 146, (2E, 4E, 6E)-7-(3,5-diisopropyl-2-n-heptyloxyphenyl)-3-methylocta-2,4,6-trienoic acid] | – | 116 | 46 | 100 |
| CCCCCCCOc1c(C(C)C)cc(C(C)C)cc1C(C)C/C=C/C(C)=C/C(=O)O (stereo not shown) [Compound 148, (2E, 4E)-7-(3,5-diisopropyl-2-n-heptyloxyphenyl)-3-methylocta-2,4-dienoic acid] | – | 84 | 53 | 87 |
| CCCCCCCOc1c(C(C)C)cc(C(C)C)cc1C(C)C/C=C/C(C)=C\C(=O)O (stereo not shown) [Compound 149, (2Z, 4E)-7-(3,5-diisopropyl-2-n-heptyloxyphenyl)-3-methylocta-2,4-dienoic acid] | – | 42 | 16 | 37 |
| CCCOc1cc2c(cc1C1=C(/C=C/C(C)=C/C(=O)O)CCC1)C(C)(C)CCC2(C)C [Compound 158, (2E, 4E)-5-[2-(5,5,8,8-tetramethyl-3-propyloxy-5,6,7,8-tetrahydronaphthalen-2yl)cyclopent-1-en-1-yl]-3-methyl pentadienoic cid] | – | 106 | 21 | 53 |
| CC(C=CC=C(C)c1cc2c(cc1OCC(C)C)C(C)(C)CCC2(C)C)=CC(=O)O [Compound 169, (2E, 4E, 6Z)-7-[3-isobutyloxy-5,6,7,8-tetrahydro-5,5,8,8-tetramethyl-2-naphthalen-2-yl]-3-methyl-octa-2,4,6-trienoic acid] | – | 31 | 5 | 14 |
| CCCCCOc1cc2c(cc1/C(C)=C/C=C/C(C)=C/C(=O)O)C(C)(C)CCC2(C)C [Compound 170, (2E, 4E, 6E)-7-[3-pentyloxy-5,6,7,8-tetrahydro-5,5,8,8-tetramethyl-2-naphthalen-2-yl]-3-methyl-octa-2,4,6-trienoic acid] | – | 78 | 11 | 41 |
| CCCCCCCOc1cc2c(cc1\C(C)=C/C=C/C(C)=C/C(=O)O)C(C)(C)CCC2(C)C [Compound 173, (2E, 4E, 6Z)-7-[3-heptyloxy-5,6,7,8-tetrahydro-5,5,8,8-tetramethyl-2-naphthalen-2-yl]-3-methyl-octa-2,4,6-trienoic acid] | – | 21 | 4 | 12 |
| CCCOc1cc2c(cc1C(C)C/C=C/C(C)=C/C(=O)O)C(C)(C)CCC2(C)C (stereo not shown) [Compound 175, (2E, 4E)-7-[3-propoxy-5,6,7,8-tetrahydro-5,5,8,8-tetramethyl-2-naphthalen-2-yl]-3-methyl-octa-2,4-dienoic acid] | – | 31 | 11 | 21 |

Other lines, results leading:

| melting point | Kd (RXRγ) [nM] | Kd (RXRα) [nM] | Kd (RXRβ) [nM] | Structure (SMILES) |
| --- | --- | --- | --- | --- |
| 252 to 254 °C | – | – | – | CCCc1cc2c(cc1C(=O)c1ccc(C(=O)O)cc1)C(C)(C)CCC2(C)C [Compound 101, 4-[(3-n-propyl-5,6,7,8-tetrahydro-5,5,8,8-tetramethyl-2-naphthyl)carbonyl]benzoic acid] |
| 169 to 172 °C | – | – | – | Cc1cc2c(cc1C(=O)c1ccc(C(=O)NOCc3ccccc3)cc1)C(C)(C)CCC2(C)C [Compound 105, 4-[(3,5,5,8,8-pentamethyl-5,6,7,8-tetrahydro-2-naphthyl)carbonyl]benzoic acid O-benzyloxime] |
| 91 to 95 °C | – | – | – | CCCCCCONC(=O)c1ccc(C(=O)c2cc3c(cc2C)C(C)(C)CCC3(C)C)cc1 [Compound 106, 4-[(3,5,5,8,8-pentamethyl-5,6,7,8-tetrahydro-2-naphthyl)carbonyl]benzoic acid O-hexyloxime] |
| 195 to 200 °C (dec.) | – | – | – | CCOc1cc2c(cc1C=Cc1ccc(C(=O)O)cc1)C(C)(C)CCC2(C)C [Compound 107, 4-[(3-ethoxy-5,6,7,8-tetrahydro-5,5,8,8-tetramethyl-2-naphthyl)ethenyl]benzoic acid] |
| 207 to 210 °C | – | – | – | CCCCOc1cc2c(cc1C(=O)c1ccc(C(=O)O)cc1)C(C)(C)CCC2(C)C [Compound 111, 4-[(3-butyloxy-5,6,7,8-tetrahydro-5,5,8,8-tetramethyl-2-naphthyl)carbonyl]benzoic acid] |
| 194 to 196 °C | – | – | – | CCCCOc1cc2c(cc1C=Cc1ccc(C(=O)O)cc1)C(C)(C)CCC2(C)C [Compound 112, 4-[(3-butyloxy-5,6,7,8-tetrahydro-5,5,8,8-tetramethyl-2-naphthyl)ethenyl]benzoic acid] |
| 200 to 205 °C | – | – | – | CCCCCCCOc1cc2c(cc1C(=O)c1ccc(C(=O)NO)cc1)C(C)(C)CCC2(C)C [Compound 115, 4-[(3-heptyloxy-5,6,7,8-tetrahydro-5,5,8,8-tetramethyl-2-naphthyl)carbonyl]benzoic acid oxime] |
| – | 70 | 49 | 13 | COC(C)(c1ccc(C(=O)O)cc1)c1cccc2cc3c(cc12)C(C)(C)CCC3(C)C (stereo not shown) [Compound 141, 4-[1-methoxy-1-(5,6,7,8-tetrahydro-5,5,8,8-tetramethyl-anthracen-1-yl)ethyl)benzoic acid] |
| – | 50 | 27 | 90 | C=C(c1ccc(C(=O)O)cc1)c1cccc2cc3c(cc12)C(C)(C)CCC3(C)C [Compound 142, 4-[1-(5,6,7,8-tetrahydro-5,5,8,8-tetramethyl-anthracen-1-yl)vinyl)benzoic acid] |
| 221 to 223.5 °C | – | – | – | CC1(C)CCC(C)(C)c2cc(C(=O)c3ccc(C(=O)NO)cc3)c(OCc3ccc(Br)cc3)cc21 [Compound 161, 4-[(3-(4-bromobenzyloxy)-5,6,7,8-tetrahydro-5,5,8,8-tetramethyl-2-naphthyl)carbonyl]benzoic acid oxime] |
| – | 6 | 2 | 6 | CON=C(c1ccc(C(=O)O)cc1)c1cc2c(cc1OCc1ccccc1)C(C)(C)CCC2(C)C [Compound 163, trans-4-[(3-benzyloxy-5,6,7,8-tetrahydro-5,5,8,8-tetramethyl-2-naphthyl)carbonyl]benzoic acid O-methyloxime] |
| 222 to 228 °C (dec.) | – | – | – | CC1(C)CCC(C)(C)c2cc(C3(c4ccc(C(=O)O)cc4)OCCO3)c(OCc3ccccc3)cc21 [Compound 164, 4-[2-(3-benzyloxy-5,6,7,8-tetrahydro-5,5,8,8-tetramethyl-2-naphthyl)-[1,3]dioxolan-2-yl]benzoic acid] |
| – | 46 | 5 | 43 | COc1ccc(COc2cc3c(cc2/C(C)=C/C=C/C(C)=C/C(=O)O)C(C)(C)CCC3(C)C)cc1 [Compound 174, (2E, 4E, 6E)-7-[3-(4-methoybenzyloxy)-5,6,7,8-tetrahydro-5,5,8,8-tetramethyl-2-naphthalen-2-yl]-3-methyl-octa-2,4,6-trienoic acid] |

Reference: US6545049B1, “Dimer-selective RXR modulators and methods for their use” (Ligand Pharmaceuticals Incorporated, priority 1995, dated 2003)
